# In patent US4923892A, “Tricyclic aromatic compounds” (Burroughs Wellcome Co., priority 1985, dated 1990):
# What was measured:
# histamine = assay: In vivo antihistaminic activity: protection of guinea pigs against histamine aerosol challenge; set-up: species or system Guinea pigs (Hartley, male)
# [1] = system: Compound 48/80 Induced Anaphylactoid Reaction; assay: Anaphylactoid activity: inhibition of compound 48/80 induced anaphylactoid reaction in rats; assay type: in vivo, Wister rats; conditions: Rattus norvegicus, po, dosed 2 hours before compound 48/80 (2 mg/kg i.v.), propranolol 5 mg/kg i.p., at least 50 animals, read-out: ED50, dose providing 50% protection against death induced by compound 48/80
# Experimental: Non-fasted, Wister rats (180-300 g) were dosed with the test compound (i.p. or p.o.) 2 hours before compound 48/80 challenge. One hour prior to challenge, 5 mg/kg i.p. of propranolol was administered. The anaphylactoid inducing agent, compound 48/80 which is well known in the art of pharmacology, was given intravenously at 2 mg/kg and the animals were monitored for symptoms of respiratory distress.
# Data were analyzed by Probit determinations. The response was quantitated by determining the dose of test compound which protected 50% of the animals from death at a given time point.
# Agents which block the effects of compound 48/80 are commonly classified as inhibitors of anaphylactic mediators or inhibitors of the release of anaphylic mediators.
# LD50 in rats = conditions: rat, in vivo
SMILES,"ED50 (histamine; Cavia porcellus, po, 4 hr post dosing, guinea pigs, 0.25% histamine aerosol, at least 40 animals) [mg/kg]",antihistaminic activity in vivo (histamine; in words),duration of antihistaminic activity (histamine; in words),ED50 [1] [mg/kg],LD50 (LD50 in rats; ip) [mg/kg],LD50 (LD50 in rats; po) [mg/kg]
"CN(C)CC/C=C1/c2ccccc2COc2ccc(C(=O)O)cc21 [Compound 1, (Z)-11-(3-(Dimethylamino)propylidene)-6,11-dihydrodibenz[b,e]oxepin-2-carboxylic acid]",0.15,extremely good antihistaminic activity in vivo,very long durations of antihistamic activity,1.1,~210,> 500
"CN(C)CCC=C1c2ccccc2COc2ccccc21 [Doxepin, 11-(3-(dimethylamino)propylidene)-6,11-dihydrodibenz[b,e]oxepin]",,,,0.15,,
Cc1ccc(/C(=C\CN2CCCC2)c2ccccn2)cc1 [Triprolidine],,,,> 30,,
